Test results from patent US12643892B2, “Pyridazinone compounds for the treatment of neuromuscular diseases” (Edgewise Therapeutics, Inc., priority 2020, dated 2026).

Target: Skeletal Myofibril ATPase (Rabbit Psoas myofibrils)
Assay: Skeletal Myofibril ATPase Assay
Type: biochemical
Settings: PK/LDH-coupled NADH absorbance at 340 nm
Summary of the method: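 Rabbit psoas myofibril ATPase read through a PK-LDH coupled system, as NADH loss at 340 nm every 1.5-2 min for 1 h, in PIPES/CaCl2/EGTA pCa buffer at pH 7.0. Absorbance change normalized to 1% DMSO vehicle (100%) and no change (0%). IC50 from a four-parameter logistic fit with bottom constrained ≥0.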

Question: For O=c1ccc(-c2nc(-c3cccnc3)no2)nn1Cc1ccccc1 [Compound 67, 2-benzyl-6-(3-(pyridin-3-yl)-1,2,4-oxadiazol-5-yl)pyridazin-3(2H)-one], which IC50 is on record?
Answer: 10 to 100 µM

Question: For CCNC(=O)Cn1nc(-c2nc(-c3ccc(F)c(F)c3)no2)ccc1=O [Compound 8, 2-(3-(3-(3,4-difluorophenyl)-1,2,4-oxadiazol-5-yl)-6-oxopyridazin-1(6H)-yl)-N-ethylacetamide], which IC50 is on record?
Answer: ≤ 10 µM

Question: Which IC50 does the source give for Cn1cc(-c2ccc(=O)n(CC(=O)NCc3ccccc3Cl)n2)cn1 [Compound 54, N-(2-chlorobenzyl)-2-(3-(1-methyl-1H-pyrazol-4-yl)-6-oxopyridazin-1(6H)-yl)acetamide] here?
Answer: 10 to 100 µM

Question: With Cc1cccc(-c2noc(-c3ccc(=O)n(Cc4cncnc4)c3)n2)c1 [Compound 105, 1-(pyrimidin-5-ylmethyl)-5-(3-(m-tolyl)-1,2,4-oxadiazol-5-yl)pyridin-2(1H)-one] as the molecule, how does the IC50 read?
Answer: ≤ 10 µM

Question: With Cc1cccc(-c2noc(-c3ccc(=O)n(Cc4cccnc4C#N)c3)n2)c1 [Compound 112, 3-((2-oxo-5-(3-(m-tolyl)-1,2,4-oxadiazol-5-yl)pyridin-1(2H)-yl)methyl)picolinonitrile] as the molecule, how does the IC50 read?
Answer: > 120 µM

Question: Which IC50 does the source give for O=C(Cn1nc(-c2nnc(-c3cccc(Cl)c3)s2)ccc1=O)NC1CCC1 [Compound 23, 2-(3-(5-(3-chlorophenyl)-1,3,4-thiadiazol-2-yl)-6-oxopyridazin-1(6H)-yl)-N-cyclobutylacetamide] here?
Answer: ≤ 10 µM

Question: Which IC50 does the source give for O=C(Cn1nc(-c2cccs2)ccc1=O)Nc1ccc2cc[nH]c2c1 [Compound 48, N-(1H-indol-6-yl)-2-(6-oxo-3-(thiophen-2-yl)pyridazin-1(6H)-yl)acetamide] here?
Answer: > 100 µM

Question: With Cc1noc(-c2ccc(=O)n(Cc3cccc(F)c3)n2)n1 [Compound 72, 2-(3-fluorobenzyl)-6-(3-methyl-1,2,4-oxadiazol-5-yl)pyridazin-3(2H)-one] as the molecule, how does the IC50 read?
Answer: 10 to 100 µM

Question: For O=C(Cn1nc(-c2cccs2)ccc1=O)Nc1ccc2c(c1)OCO2 [Compound 47, N-(benzo[d][1,3]dioxol-5-yl)-2-(6-oxo-3-(thiophen-2-yl)pyridazin-1(6H)-yl)acetamide], which IC50 is on record?
Answer: > 100 µM

Question: With O=C(Cn1nc(-c2cccs2)ccc1=O)Nc1ccc(Cl)cc1Cl [Compound 42, N-(2,4-dichlorophenyl)-2-(6-oxo-3-(thiophen-2-yl)pyridazin-1(6H)-yl)acetamide] as the molecule, how does the IC50 read?
Answer: > 100 µM

Question: With O=c1ccc(-c2nc(-c3ccc(F)c(F)c3)no2)cn1Cc1cccnc1 [Compound 97, 5-(3-(3,4-difluorophenyl)-1,2,4-oxadiazol-5-yl)-1-(pyridin-3-ylmethyl)pyridin-2(1H)-one] as the molecule, how does the IC50 read?
Answer: ≤ 10 µM

Question: For Cc1ccc(-c2ccc(=O)n(CC(=O)NC3CCCCC3)n2)s1 [Compound 44, N-cyclohexyl-2-(3-(5-methylthiophen-2-yl)-6-oxopyridazin-1(6H)-yl)acetamide], which IC50 is on record?
Answer: > 100 µM

Question: Which IC50 does the source give for Cc1cc(Cn2nc(-c3nc(-c4cccc(Cl)c4)no3)ccc2=O)on1 [Compound 63, 6-(3-(3-chlorophenyl)-1,2,4-oxadiazol-5-yl)-2-((3-methylisoxazol-5-yl)methyl)pyridazin-3(2H)-one] here?
Answer: ≤ 10 µM

Question: Which IC50 does the source give for Cc1ccc(-c2ccc(=O)n(CC(=O)N[C@](C)(C#N)C(C)C)n2)s1 [Compound 36, (S)-N-(2-cyano-3-methylbutan-2-yl)-2-(3-(5-methylthiophen-2-yl)-6-oxopyridazin-1(6H)-yl)acetamide] here?
Answer: 10 to 100 µM

Question: Which IC50 does the source give for O=C(Cn1nc(-c2cccs2)ccc1=O)Nc1ccccc1 [Compound 43, 2-(6-oxo-3-(thiophen-2-yl)pyridazin-1(6H)-yl)-N-phenylacetamide] here?
Answer: > 100 µM

Tested on: embryos from zebrafish model of DMD
Assay: not given
Settings: FIG. 2, Li and Amer, PLoSONE, 2015; cited from earlier work

Question: With Cc1ccc(S(=O)(=O)NCc2ccccc2)cc1 [BTS, N-benzyl-p-tolyl-sulfonamide] as the molecule, how does the “protection of muscles from pathological muscle derangement” value read?
Answer: protect muscles from pathological muscle derangement
